# Experimental data reported in a melting point compilation (Tetko et al.; mined from patent text by program, amines drawn as free bases though some values may be those of a salt).
row,SMILES,melting point
1,C(=Cc1ccc(C=Cc2ccccc2)c2ccccc12)c1ccccc1,189 °C
2,Cc1nn(CC(O)c2ccc(OC(F)(F)F)cc2)c(=O)n1-c1ccc(N2CCN(c3ccc(O)cc3)CC2)cc1 (stereo not given),231 °C
3,CC(C#N)c1ccc2c(=O)c3ccccc3ccc2c1 (stereo not given),108 to 109 °C
4,Cc1ccc(S(=O)(=O)OCC2Cc3cc(Cl)c4c(c3O2)CCC4)cc1 (stereo not given),82 to 84 °C
5,COc1ccc(Cl)cc1C(NC(C)=N)(c1ccccc1)c1ccccc1,143 to 145 °C
6,O=C(O)CCc1ccc2ccccc2c1Br,116 to 119 °C
7,CC[C@@H](C1CC1)n1cc(Cl)nc(N2CCc3cc(Br)cc(Br)c32)c1=O,165 °C
8,CCCCCCCCC(SCCCCCC)C(=O)Nc1c(SC)cc(SC)c2ncccc12 (stereo not given),91 to 93 °C
9,CCN1CCC(C(c2ccccc2)c2ccccc2)C(=O)C1 (stereo not given),73 to 74 °C
10,COc1ccc2c(c1)C13CCN(C)C(C2)C1(OC(C)=O)CCOC3 (stereo not given),161 to 163 °C
11,CN(C)CCCC1CCCN(C(=O)N2c3ccccc3C(=O)Nc3cccnc32)C1 (stereo not given),115 to 117 °C
12,CCCCCCOc1ccc(-c2ccccc2)cc1,61 to 62 °C
13,COc1ccc2c(c1)N(Cc1ccccc1)C(=O)[C@H]1CCC[C@H]1N2C(=O)CN1C(=O)c2ccccc2C1=O (relative stereo),244 to 245 °C
14,O=c1[nH]c2ccc(-c3cccc(Cl)c3)cc2s1,195 to 196 °C
15,CCNC(=O)Cc1ccc2ccn(C3CCN(CCc4ccccc4F)CC3)c2c1,147 to 149 °C
16,C=CCN(C(C)=O)c1cccc(-c2ccnc3c(C#N)cnn23)c1,135 to 137 °C
17,O=C(O)c1ccc(-n2cc[nH]c2=S)cc1,194 to 196 °C
18,CC(=O)N(O)C(C)c1ccccc1Nc1c(Cl)ccc(C)c1Cl (stereo not given),185 to 187 °C
19,CN(C(=O)c1ccccn1)c1cccc(F)c1,75 to 78 °C
20,CC(C)O[Si](C)(CCl)c1ccc(-c2ccccc2)cc1 (stereo not given),35 to 38 °C
21,Cc1cccc2c1C(=O)N1CC[C@H]1c1c(C(=O)OC(C)(C)C)ncn1-2,191 to 192 °C

# More lines, now with the values ahead:
row,melting point,SMILES
1,161 to 163 °C,CCCCCCc1ncc(/C=C(\Cc2cccs2)C(=O)O)n1Cc1ccccc1Cl
2,205 to 207 °C,COc1ccc2c(c1OCc1ccccc1)CC(C(=O)O)N(C(=O)Cc1c(Cl)cccc1Cl)C2 (racemic)
3,140 to 142 °C,O=C(Nc1ccc(Cl)c(C(F)(F)F)c1)N1COc2cc(Oc3ccnc(Cl)n3)ccc21
4,104 to 105 °C,Cn1cc(C2CCC(=O)C2)c2cc(F)ccc21 (stereo not given)
5,166 to 168 °C,COC(=O)c1cccc([N+](=O)[O-])c1C(=O)O
6,68 to 69 °C,CCOC(=O)c1ccc(N2CSCC2=O)cc1
7,219 to 220 °C,COC(=O)c1cccc(Cn2c(C(=O)Nc3nc(-c4cc(OC)c(C)cc4OC)c(CCC4CCCCC4)s3)cc3cc(C)cc(C)c32)c1
8,294 to 296 °C,CCOC(=O)c1nnc2ccc([N+](=O)[O-])cc2c1O
9,135 °C,COC=C(C(=O)OC)N(C)c1cccc(-c2ccc(Cl)cc2)n1
10,225 to 226 °C,Cc1noc(NC(=O)N2CCN(c3cncc(-c4ccc(F)cc4F)n3)CC2)c1C
11,148 °C,Cc1cc(C#N)cc(C(=O)Nc2cccc(Cl)c2)n1
12,86 to 88 °C,CC(C)c1nc2cc(COc3ccc(C=O)cc3)ccc2o1
13,177 to 178 °C,COc1cc(C(=O)Nc2cccc3c2CN(C)CC3)cc(OC)c1OC
14,123 to 126 °C,Cc1ccc(-c2cc(CCCO)nn2-c2ccc(S(N)(=O)=O)cc2)cc1
15,97 to 99 °C,CCOc1nc(NCc2ccco2)nc(Oc2cccc(C(F)(F)F)c2)n1
16,100 to 101 °C,Clc1cn2c(Cl)cnc2c(Br)n1
17,150 to 152 °C,CONC(=N)c1nc(C)c(I)c(NCC(F)(F)F)n1
18,241 to 242 °C,CC1(C)c2cc(C(=O)O)ccc2Oc2ncccc21
19,165 to 167 °C,C#Cc1nc(NOC)c2ncn([C@@H]3O[C@H](CO)[C@@H](O)[C@H]3O)c2n1
